Tested on: Plasmodium berghei, the NK65 strain
Experiment: Drug suppressive test against P. berghei in mice
Format: in vivo, Plasmodium berghei in Swiss outbred mice
Experimental: Adult Swiss outbred mice (20 ± 2 g weigh) were inoculated by the intraperitoneal route with 1 × 10^5 red blood cells infected withP. berghei, the NK65 strain. Groups of 20-30 infected mice were kept together for 2-24 h, then were divided randomly in groups of up to six animals per cage and were treated by gavage for three consecutive days with 25 mg/Kg or 50 mg/Kg of the test compounds diluted in DMSO 3% (v/v). Two control groups were used and either received CQ (20 mg/kg, diluted in water) or the drug vehicle. Smears prepared from the tail blood of the mice on days 5-10 post-infection were methanol-fixed, stained with Giemsa and examined microscopically.

CCN(CC)CCCC(C)Nc1ccnc2cc(Cl)ccc12 (stereo not drawn) [Chloroquine, chloroquine]
Mice survival (increase) (20 mg/kg, increase compared to survival of nontreated controls): > 8 days
Mice survival (mice, 20 mg/kg by gavage, three consecutive days): > 30 days
Parasitaemia reduction at day 10 (mice, 20 mg/kg by gavage, three consecutive days, in relation to untreated mice): 100%

Reference: paper PMC4660620, “Aspidosperma (Apocynaceae) plant cytotoxicity and activity towards malaria parasites. Part II: experimental studies with Aspidosperma ramiflorum in vivo and in vitro” (Memórias do Instituto Oswaldo Cruz, 2015)
